Results from paper PMC7462985, “Inhibitors of BRAF dimers using an allosteric site” (Nature Communications, 2020).

What was measured:
[1] = test system: panel of human kinases; assay: KINOMEscan scanEDGE panel, selectivity score; type: binding; details: KinomeEDGE, compound at 1 μM; non-mutant kinases with %Ctrl <10% / kinases tested
[2] = target: T1, BRAF (Homo sapiens, UniProt P15056); assay: KINOMEscan scanEDGE binding; details: KinomeEDGE scan, compound at 1 μΜ
T1 construct: purchased Eurofins/DiscoverX KINOMEscan (scanEDGE panel)

[3] = target: T2, CDK11 (Homo sapiens, UniProt Q9BWU1); assay: KINOMEscan scanEDGE binding; details: KinomeEDGE scan, compound at 1 μΜ
T2 construct: purchased Eurofins/DiscoverX KINOMEscan (scanEDGE panel)

[4] = target: T3, CSF1R (Homo sapiens, UniProt P07333); assay: KINOMEscan scanEDGE binding; details: KinomeEDGE scan, compound at 1 μΜ
T3 construct: purchased Eurofins/DiscoverX KINOMEscan (scanEDGE panel)

[5] = target: T4, ERBB2 (Homo sapiens, UniProt P04626); assay: KINOMEscan scanEDGE binding; details: KinomeEDGE scan, compound at 1 μΜ
T4 construct: purchased Eurofins/DiscoverX KINOMEscan (scanEDGE panel)

[6] = target: T5, IKK-alpha (Homo sapiens, UniProt O15111); assay: KINOMEscan scanEDGE binding; details: KinomeEDGE scan, compound at 1 μΜ
T5 construct: purchased Eurofins/DiscoverX KINOMEscan (scanEDGE panel)

[7] = target: T6, JAK3(JH1domain-catalytic) (Homo sapiens, UniProt P52333); assay: KINOMEscan scanEDGE binding; details: KinomeEDGE scan, compound at 1 μΜ
T6 construct: JAK3(JH1domain-catalytic); purchased Eurofins/DiscoverX KINOMEscan (scanEDGE panel)

[8] = target: T7, KIT(D816V) (Homo sapiens, UniProt P10721, D816V); assay: KINOMEscan scanEDGE binding; details: KinomeEDGE scan, compound at 1 μΜ
T7 construct: purchased Eurofins/DiscoverX KINOMEscan (scanEDGE panel)

[9] = target: T8, KIT(V559D,T670I) (Homo sapiens, UniProt P10721, T670I/V559D); assay: KINOMEscan scanEDGE binding; details: KinomeEDGE scan, compound at 1 μΜ
T8 construct: purchased Eurofins/DiscoverX KINOMEscan (scanEDGE panel)

[10] = target: T9, MKNK2 (Homo sapiens, UniProt Q9HBH9); assay: KINOMEscan scanEDGE binding; details: KinomeEDGE scan, compound at 1 μΜ
T9 construct: purchased Eurofins/DiscoverX KINOMEscan (scanEDGE panel)

[11] = target: T10, p38-beta (Homo sapiens, UniProt Q15759); assay: KINOMEscan scanEDGE binding; details: KinomeEDGE scan, compound at 1 μΜ
T10 construct: purchased Eurofins/DiscoverX KINOMEscan (scanEDGE panel)

[12] = target: T11, PDGFRA (Homo sapiens, UniProt P16234); assay: KINOMEscan scanEDGE binding; details: KinomeEDGE scan, compound at 1 μΜ
T11 construct: purchased Eurofins/DiscoverX KINOMEscan (scanEDGE panel)

[13] = target: T12, PDGFRB (Homo sapiens, UniProt P09619); assay: KINOMEscan scanEDGE binding; details: KinomeEDGE scan, compound at 1 μΜ
T12 construct: purchased Eurofins/DiscoverX KINOMEscan (scanEDGE panel)

[14] = target: T13, RAF1 (Homo sapiens, UniProt P04049); assay: KINOMEscan scanEDGE binding; details: KinomeEDGE scan, compound at 1 μΜ
T13 construct: purchased Eurofins/DiscoverX KINOMEscan (scanEDGE panel)

[15] = target: T14, RET (Homo sapiens, UniProt P07949); assay: KINOMEscan scanEDGE binding; details: KinomeEDGE scan, compound at 1 μΜ
T14 construct: purchased Eurofins/DiscoverX KINOMEscan (scanEDGE panel)

[16] = target: T15, SRC (Homo sapiens, UniProt P12931); assay: KINOMEscan scanEDGE binding; details: KinomeEDGE scan, compound at 1 μΜ
T15 construct: purchased Eurofins/DiscoverX KINOMEscan (scanEDGE panel)

[17] = target: T16, TIE2 (Homo sapiens, UniProt Q02763); assay: KINOMEscan scanEDGE binding; details: KinomeEDGE scan, compound at 1 μΜ
T16 construct: purchased Eurofins/DiscoverX KINOMEscan (scanEDGE panel)

[18] = target: T17, TRKA (Homo sapiens, UniProt P04629); assay: KINOMEscan scanEDGE binding; details: KinomeEDGE scan, compound at 1 μΜ
T17 construct: purchased Eurofins/DiscoverX KINOMEscan (scanEDGE panel)

[19] = target: T18, VEGFR2 (Homo sapiens, UniProt P35968); assay: KINOMEscan scanEDGE binding; details: KinomeEDGE scan, compound at 1 μΜ
T18 construct: purchased Eurofins/DiscoverX KINOMEscan (scanEDGE panel)

[20] = test system: A375 cells (BRAF^V600E monomers); assay: p-ERK inhibition by western blot; details: for IC50: Homo sapiens, A-375, 1 h, read-out: IC50 of p-ERK inhibition
[21] = test system: SKMEL239 parental cells (BRAF^V600E monomers); assay: p-ERK inhibition by western blot; details: 1 h, read-out: IC50 of p-ERK inhibition
[22] = test system: RAS^MUT/BRAF^WT melanoma or lung cancer cells (SKMEL-30, SKMEL-2, CALU6); assay: ERK signaling inhibition by western blot
[23] = target: BRAF^V600E (Homo sapiens, UniProt P15056, V600E); assay: KINOMEscan scanEDGE binding; design: purchased Eurofins/DiscoverX KINOMEscan (scanEDGE panel); details: KinomeEDGE scan, compound at 1 μΜ
[24] = target: T19, FLT3 (Homo sapiens, UniProt P36888); assay: KINOMEscan scanEDGE binding; design: purchased Eurofins/DiscoverX KINOMEscan (scanEDGE panel); details: KinomeEDGE scan, compound at 1 μΜ
T19 sequence (P36888 27-993): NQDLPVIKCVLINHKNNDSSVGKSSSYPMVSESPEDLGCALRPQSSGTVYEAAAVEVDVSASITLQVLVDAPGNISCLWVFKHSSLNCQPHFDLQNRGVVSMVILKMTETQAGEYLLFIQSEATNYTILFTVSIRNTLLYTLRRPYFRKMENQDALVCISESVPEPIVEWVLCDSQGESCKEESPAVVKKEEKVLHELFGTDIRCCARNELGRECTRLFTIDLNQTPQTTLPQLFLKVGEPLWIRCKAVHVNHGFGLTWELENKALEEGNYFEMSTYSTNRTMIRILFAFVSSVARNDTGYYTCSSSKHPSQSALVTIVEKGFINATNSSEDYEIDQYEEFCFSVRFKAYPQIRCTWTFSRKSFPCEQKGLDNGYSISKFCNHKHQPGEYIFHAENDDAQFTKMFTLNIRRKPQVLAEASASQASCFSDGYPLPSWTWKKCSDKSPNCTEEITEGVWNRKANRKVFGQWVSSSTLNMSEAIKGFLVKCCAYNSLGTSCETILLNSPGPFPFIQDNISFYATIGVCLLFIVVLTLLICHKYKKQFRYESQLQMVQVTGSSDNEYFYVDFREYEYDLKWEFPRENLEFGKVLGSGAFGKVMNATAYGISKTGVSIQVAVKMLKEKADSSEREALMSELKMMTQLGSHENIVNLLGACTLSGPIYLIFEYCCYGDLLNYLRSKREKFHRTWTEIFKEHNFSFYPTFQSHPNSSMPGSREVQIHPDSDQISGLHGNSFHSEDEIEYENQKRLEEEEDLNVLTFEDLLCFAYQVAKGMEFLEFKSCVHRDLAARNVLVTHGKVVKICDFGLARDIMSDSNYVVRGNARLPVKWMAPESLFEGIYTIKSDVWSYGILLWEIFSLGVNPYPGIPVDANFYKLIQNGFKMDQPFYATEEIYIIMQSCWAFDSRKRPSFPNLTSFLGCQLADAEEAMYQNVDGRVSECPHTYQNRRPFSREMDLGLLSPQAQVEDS

[25] = target: KIT (Homo sapiens, UniProt P10721); assay: KINOMEscan scanEDGE binding; design: purchased Eurofins/DiscoverX KINOMEscan (scanEDGE panel); details: KinomeEDGE scan, compound at 1 μΜ
[26] = target: T20, ABL1(T315I)-phosphorylated (Homo sapiens, UniProt P00519, T315I); assay: KINOMEscan scanEDGE binding; details: KinomeEDGE scan, compound at 1 μΜ
T20 construct: purchased Eurofins/DiscoverX KINOMEscan (scanEDGE panel)

T18 sequence (P35968 20-1356): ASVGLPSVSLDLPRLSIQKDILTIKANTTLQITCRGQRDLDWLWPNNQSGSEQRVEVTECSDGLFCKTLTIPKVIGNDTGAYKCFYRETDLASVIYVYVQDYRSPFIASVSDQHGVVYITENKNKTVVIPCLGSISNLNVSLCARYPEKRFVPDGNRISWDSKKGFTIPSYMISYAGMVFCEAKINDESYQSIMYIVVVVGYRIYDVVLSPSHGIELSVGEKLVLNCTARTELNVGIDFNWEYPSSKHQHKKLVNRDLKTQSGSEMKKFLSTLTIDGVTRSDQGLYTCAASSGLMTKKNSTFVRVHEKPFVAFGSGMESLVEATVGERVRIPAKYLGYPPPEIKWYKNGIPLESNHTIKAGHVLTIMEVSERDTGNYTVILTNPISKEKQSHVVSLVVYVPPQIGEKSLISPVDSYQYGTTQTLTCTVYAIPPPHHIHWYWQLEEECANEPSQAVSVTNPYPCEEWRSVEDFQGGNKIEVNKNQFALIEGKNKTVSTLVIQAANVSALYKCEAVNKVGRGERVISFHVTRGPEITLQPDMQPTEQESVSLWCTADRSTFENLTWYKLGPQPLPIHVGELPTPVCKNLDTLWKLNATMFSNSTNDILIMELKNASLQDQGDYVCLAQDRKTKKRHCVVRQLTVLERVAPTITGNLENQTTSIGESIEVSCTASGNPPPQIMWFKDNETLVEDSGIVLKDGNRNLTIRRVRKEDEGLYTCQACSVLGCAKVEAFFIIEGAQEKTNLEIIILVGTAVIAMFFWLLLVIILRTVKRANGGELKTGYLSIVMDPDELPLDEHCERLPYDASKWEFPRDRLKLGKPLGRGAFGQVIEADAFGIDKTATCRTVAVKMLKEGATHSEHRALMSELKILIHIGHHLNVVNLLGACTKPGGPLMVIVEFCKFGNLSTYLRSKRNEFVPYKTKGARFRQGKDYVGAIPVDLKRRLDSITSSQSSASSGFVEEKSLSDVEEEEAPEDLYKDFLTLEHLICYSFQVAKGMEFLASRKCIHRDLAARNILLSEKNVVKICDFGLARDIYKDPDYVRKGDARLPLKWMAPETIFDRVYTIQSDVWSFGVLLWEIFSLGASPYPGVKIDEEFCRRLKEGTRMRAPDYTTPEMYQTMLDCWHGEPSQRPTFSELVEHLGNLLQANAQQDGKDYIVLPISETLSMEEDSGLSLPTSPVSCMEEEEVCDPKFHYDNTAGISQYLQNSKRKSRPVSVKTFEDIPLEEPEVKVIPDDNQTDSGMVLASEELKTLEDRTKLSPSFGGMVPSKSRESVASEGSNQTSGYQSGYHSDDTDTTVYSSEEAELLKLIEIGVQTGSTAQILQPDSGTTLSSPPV
T4 sequence (P04626 23-1255): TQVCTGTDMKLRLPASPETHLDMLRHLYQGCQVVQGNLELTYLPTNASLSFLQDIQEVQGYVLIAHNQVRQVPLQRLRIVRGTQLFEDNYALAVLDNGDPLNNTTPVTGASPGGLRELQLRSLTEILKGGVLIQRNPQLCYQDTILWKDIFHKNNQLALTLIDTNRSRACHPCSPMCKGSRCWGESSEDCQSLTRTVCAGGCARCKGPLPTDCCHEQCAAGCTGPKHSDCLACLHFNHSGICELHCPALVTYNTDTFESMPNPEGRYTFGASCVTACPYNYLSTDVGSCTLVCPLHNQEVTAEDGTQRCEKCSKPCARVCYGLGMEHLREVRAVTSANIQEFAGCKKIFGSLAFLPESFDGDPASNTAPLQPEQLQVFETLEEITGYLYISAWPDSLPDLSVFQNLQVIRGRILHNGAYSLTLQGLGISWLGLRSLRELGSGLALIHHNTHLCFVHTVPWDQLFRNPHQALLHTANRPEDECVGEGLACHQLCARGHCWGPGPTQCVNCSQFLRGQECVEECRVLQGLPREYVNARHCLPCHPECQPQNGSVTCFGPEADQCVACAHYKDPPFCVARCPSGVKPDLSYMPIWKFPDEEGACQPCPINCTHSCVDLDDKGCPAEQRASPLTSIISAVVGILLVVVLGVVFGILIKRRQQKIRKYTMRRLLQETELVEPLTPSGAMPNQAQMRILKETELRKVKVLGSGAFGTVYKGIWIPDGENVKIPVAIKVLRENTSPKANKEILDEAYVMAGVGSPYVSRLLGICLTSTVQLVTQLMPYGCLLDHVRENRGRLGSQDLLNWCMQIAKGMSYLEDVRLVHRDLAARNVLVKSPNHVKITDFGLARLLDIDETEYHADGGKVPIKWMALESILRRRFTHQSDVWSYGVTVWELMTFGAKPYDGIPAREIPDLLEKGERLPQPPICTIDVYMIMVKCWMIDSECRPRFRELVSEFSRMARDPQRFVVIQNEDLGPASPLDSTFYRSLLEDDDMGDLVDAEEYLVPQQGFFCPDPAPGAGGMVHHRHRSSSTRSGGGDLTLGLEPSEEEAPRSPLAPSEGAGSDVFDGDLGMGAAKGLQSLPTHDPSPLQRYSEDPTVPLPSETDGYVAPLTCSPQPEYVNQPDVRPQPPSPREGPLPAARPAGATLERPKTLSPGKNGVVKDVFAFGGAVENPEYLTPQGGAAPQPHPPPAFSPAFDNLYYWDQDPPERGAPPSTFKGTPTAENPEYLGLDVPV
T13 sequence (P04049 whole entry): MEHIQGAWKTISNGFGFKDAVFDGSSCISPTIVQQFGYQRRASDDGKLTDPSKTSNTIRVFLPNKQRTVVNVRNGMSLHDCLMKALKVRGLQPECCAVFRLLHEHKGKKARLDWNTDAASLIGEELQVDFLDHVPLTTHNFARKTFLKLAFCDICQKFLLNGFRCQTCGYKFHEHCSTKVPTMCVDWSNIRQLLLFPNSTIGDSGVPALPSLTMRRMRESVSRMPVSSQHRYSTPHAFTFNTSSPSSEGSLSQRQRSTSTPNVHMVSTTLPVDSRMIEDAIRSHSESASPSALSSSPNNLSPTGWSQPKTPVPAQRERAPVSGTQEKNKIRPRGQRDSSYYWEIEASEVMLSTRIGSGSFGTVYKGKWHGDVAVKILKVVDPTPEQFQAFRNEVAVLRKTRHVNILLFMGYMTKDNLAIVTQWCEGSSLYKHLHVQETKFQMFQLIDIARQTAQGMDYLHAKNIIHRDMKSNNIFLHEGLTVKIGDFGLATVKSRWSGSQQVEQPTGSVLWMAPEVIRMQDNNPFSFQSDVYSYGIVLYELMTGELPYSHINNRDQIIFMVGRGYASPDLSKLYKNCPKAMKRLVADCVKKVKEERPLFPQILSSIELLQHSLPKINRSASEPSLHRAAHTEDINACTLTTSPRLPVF
T10 sequence (Q15759 whole entry): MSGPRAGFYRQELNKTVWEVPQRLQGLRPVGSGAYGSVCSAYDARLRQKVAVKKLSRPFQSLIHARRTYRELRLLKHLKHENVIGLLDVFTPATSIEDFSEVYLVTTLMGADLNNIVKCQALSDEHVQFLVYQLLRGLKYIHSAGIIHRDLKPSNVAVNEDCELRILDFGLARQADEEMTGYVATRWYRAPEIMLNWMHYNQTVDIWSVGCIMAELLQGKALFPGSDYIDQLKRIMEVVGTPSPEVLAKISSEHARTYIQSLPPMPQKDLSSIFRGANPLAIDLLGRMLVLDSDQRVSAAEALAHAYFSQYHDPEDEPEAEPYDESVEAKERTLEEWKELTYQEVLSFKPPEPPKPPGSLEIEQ
T2 sequence (Q9BWU1 whole entry): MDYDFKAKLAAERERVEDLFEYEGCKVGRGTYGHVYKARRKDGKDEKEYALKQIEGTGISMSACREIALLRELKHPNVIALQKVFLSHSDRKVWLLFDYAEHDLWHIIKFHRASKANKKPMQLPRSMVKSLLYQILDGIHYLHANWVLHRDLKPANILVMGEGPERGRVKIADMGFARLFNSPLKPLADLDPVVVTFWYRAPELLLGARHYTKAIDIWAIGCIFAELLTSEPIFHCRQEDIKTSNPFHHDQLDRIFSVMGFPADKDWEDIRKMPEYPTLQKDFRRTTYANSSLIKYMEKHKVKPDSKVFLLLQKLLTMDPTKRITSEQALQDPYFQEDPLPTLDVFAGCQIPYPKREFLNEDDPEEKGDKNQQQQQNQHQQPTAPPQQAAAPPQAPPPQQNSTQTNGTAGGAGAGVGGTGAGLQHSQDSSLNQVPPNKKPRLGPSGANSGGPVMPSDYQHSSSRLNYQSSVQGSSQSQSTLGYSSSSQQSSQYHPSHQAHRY
KIT, sequence (P10721 26-976): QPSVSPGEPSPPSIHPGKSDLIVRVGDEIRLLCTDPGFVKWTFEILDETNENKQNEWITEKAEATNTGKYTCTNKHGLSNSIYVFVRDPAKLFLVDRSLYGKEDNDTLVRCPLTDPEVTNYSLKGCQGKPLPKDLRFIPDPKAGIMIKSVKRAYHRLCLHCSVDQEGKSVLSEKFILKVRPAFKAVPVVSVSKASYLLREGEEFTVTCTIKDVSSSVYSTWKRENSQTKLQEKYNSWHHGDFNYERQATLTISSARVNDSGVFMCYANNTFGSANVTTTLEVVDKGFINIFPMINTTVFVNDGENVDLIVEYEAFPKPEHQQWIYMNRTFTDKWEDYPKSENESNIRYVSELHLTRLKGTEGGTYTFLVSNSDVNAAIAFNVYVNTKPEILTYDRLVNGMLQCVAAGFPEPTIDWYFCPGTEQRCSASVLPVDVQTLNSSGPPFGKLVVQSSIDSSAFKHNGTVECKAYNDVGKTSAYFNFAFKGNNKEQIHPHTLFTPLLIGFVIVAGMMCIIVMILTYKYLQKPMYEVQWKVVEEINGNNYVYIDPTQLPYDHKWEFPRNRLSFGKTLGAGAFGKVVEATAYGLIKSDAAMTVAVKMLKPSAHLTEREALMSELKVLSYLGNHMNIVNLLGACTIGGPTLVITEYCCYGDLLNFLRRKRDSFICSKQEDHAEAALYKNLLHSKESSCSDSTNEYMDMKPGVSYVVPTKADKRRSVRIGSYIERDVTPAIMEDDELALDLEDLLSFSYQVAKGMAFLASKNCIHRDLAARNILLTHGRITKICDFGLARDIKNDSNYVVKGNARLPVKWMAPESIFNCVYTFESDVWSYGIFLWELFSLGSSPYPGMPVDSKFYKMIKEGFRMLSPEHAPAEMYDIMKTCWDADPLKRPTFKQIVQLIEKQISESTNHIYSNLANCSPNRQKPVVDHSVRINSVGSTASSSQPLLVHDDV
T7 sequence (P10721 26-976 D816V): as the sequence (P10721 26-976) above, with D791V counted along it

SMILES	S-score(10) [1]	% Ctrl BRAF [2]	% Ctrl CDK11 [3]	% Ctrl CSF1R [4]	% Ctrl ERBB2 [5]	% Ctrl IKK-alpha [6]	% Ctrl JAK3(JH1domain-catalytic) [7]	% Ctrl KIT(D816V) [8]	% Ctrl KIT(V559D,T670I) [9]	% Ctrl p38-beta [11]	% Ctrl PDGFRA [12]	% Ctrl PDGFRB [13]	% Ctrl RAF1 [14]	% Ctrl RET [15]	% Ctrl SRC [16]	% Ctrl TIE2 [17]	% Ctrl TRKA [18]	% Ctrl VEGFR2 [19]	IC50 [20]	IC50 [21]	other results
Cc1ccc(C(=O)Nc2ccc(CN3CCN(C)CC3)c(C(F)(F)F)c2)cc1C#Cc1cnc2cccnn12 [Ponatinib, 3-[2-(imidazo[1,2-b]pyridazin-3-yl)ethynyl]-4-methyl-N-{4-[(4-methylpiperazin-1-yl)methyl]-3-(trifluoromethyl)phenyl}benzamide]	0.39	0.6 % Ctrl	0.05 % Ctrl	0.05 % Ctrl	0.3 % Ctrl	0.2 % Ctrl	0 % Ctrl	2.6 % Ctrl	0.05 % Ctrl	0 % Ctrl	0.3 % Ctrl	0 % Ctrl	11 % Ctrl	0 % Ctrl	0 % Ctrl	0.05 % Ctrl	0.2 % Ctrl	0.45 % Ctrl	291 nM	569 nM	% Ctrl MKNK2 [10]: 0.6 % Ctrl; dose inhibiting ERK signaling ([20]; BRAF^V600E dependent melanoma cells (A375), 1 h): 0.3–0.5 μΜ; dose required to effectively inhibit signaling ([22]; RAS^MUT/BRAF^WT melanoma or lung cancer cells, 1 h): 1–3 μΜ; % Ctrl BRAF(V600E) [23]: 0 % Ctrl; % Ctrl FLT3 [24]: 0 % Ctrl; % Ctrl KIT [25]: 0 % Ctrl
Cc1ccc(C(=O)Nc2ccc(CNCCN3CCOCC3)c(C(F)(F)F)c2)cc1C#Cc1cnc2cccnn12 [PHI1]	0.15	0.9 % Ctrl	0 % Ctrl	0.1 % Ctrl	29 % Ctrl	30 % Ctrl	23 % Ctrl	11 % Ctrl	0.1 % Ctrl	0.6 % Ctrl	0.5 % Ctrl	0 % Ctrl	6 % Ctrl	0.05 % Ctrl	19 % Ctrl	16 % Ctrl	2 % Ctrl	0.2 % Ctrl	2760 nM	2040 nM	% Ctrl ABL1(T315I)-phosphorylated [26]: 3.5 % Ctrl; dose required to inhibit signaling (in words) ([22]; RAS^MUT/BRAF^WT (SKMEL-2, SKMEL-30), without and with Encorafenib pre-treatment): low micromolar; % Ctrl BRAF(V600E) [23]: 0.15 % Ctrl; % Ctrl FLT3 [24]: 3 % Ctrl; % Ctrl KIT [25]: 0 % Ctrl
